IC50 data for eleven compounds are collected here from patent EP1984353B1, “AURORA KINASE MODULATORS AND METHOD OF USE” (Amgen, Inc, priority 2006, dated 2007).

Structures can show the parent of a compound that is named as a salt. Where two headings read alike, the source gives them in different places.

For one test, the target named is T1, AuroraA-TPX2 (Homo sapiens, UniProt O14965).
T1 construct: 20 µL of AuroraA-TPX2 KD GST; GST
T1 sequence (O14965 133-383 limits assumed): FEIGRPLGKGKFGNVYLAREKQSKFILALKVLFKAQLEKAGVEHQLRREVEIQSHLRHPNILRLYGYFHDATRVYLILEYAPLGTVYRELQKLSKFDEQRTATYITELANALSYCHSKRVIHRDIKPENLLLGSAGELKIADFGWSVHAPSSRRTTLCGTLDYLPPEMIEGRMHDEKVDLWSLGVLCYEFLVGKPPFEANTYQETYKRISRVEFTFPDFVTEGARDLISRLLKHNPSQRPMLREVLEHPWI
T1 sequence (Q9ULW0 1-43 partner limits assumed): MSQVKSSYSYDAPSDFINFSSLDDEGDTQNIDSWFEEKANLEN
Nature of the test: AuroraA-TPX2 Homogeneous Time Resolved Fluorescent (HTRF) kinase assay. Type of test: biochemical. How it is done: AuroraA-TPX2-Homogeneous Time Resolved Fluorescent (HTRF) Kinase Assay:
The Aurora-A HTRF assay begins with Aurora-A in the presence of ATP phosphorylating the biotinylated peptide PLK. The reaction incubates for about 120 min. Detection reagents are added to quench the reaction. These agents stop the reaction by diluting out the enzyme and chelating the metals due to the presence of EDTA. After addition, the assay is incubated overnight to allow the detection reagents to equilibrate.
The final concentration of PLK is about 1 µM. […] Buffer conditions are as follows: 60mM HEPES pH 7.5, 25mM NaCl, 10mM MgCl, 2mM DTT, 0.05% BSA.
The assay is quenched and stopped with 160 µL, of detection reagent. Detection reagents are as follows: Buffer made of 50mM Tris, pH 7.5, 100mM NaCl, 3mM EDTA, 0.05% BSA, 0.1% Tween20. Added to this buffer prior to reading is Steptavidin allophycocyanin (SA-APC) at a final conc in the assay of 0.0005 mg/mL, and europilated anti-phosphoPLK Ab (Eu-anti-PLK) at a final conc of 0.02 nM.
The assay plate is read in either a Discovery or a RubyStar. The eu-anti-PLK is excited at 320 nm and emits at 615 nm to excite the SA-APC which in turn emits at 655 nm.
(In TR-FRET formats the signal depends on donor and acceptor labels being close together.)

The target of the next test is T2, AuroraB (Homo sapiens, UniProt Q96GD4).
T2 construct: 20 µL of AuroraB FL His; His
Briefly: AuroraB Homogeneous Time Resolved Fluorescent (HTRF) kinase assay. Format: biochemical. As for the experimental part: AuroraB-Homogeneous Time Resolved Fluorescent (HTRF) Kinase Assay:
The AuroraB HTRF assay begins with AuroraB in the presence of ATP phosphorylating the biotinylated peptide Histone H3. The reaction incubates for about 90 min. the reaction is quentched by addition of detection reagents, which stop the reaction by diluting out the enzyme and chelating the metals due to the presence of EDTA. After addition, the assay is incubated for about 60 min to allow detection reagents to equilibrate.
The AuroraB HTRF assay comprises 1 µL of compound in 100% DMSO, 20 µL of ATP and biotinylated Histone H3, and 20 µL of AuroraB FL His for a final volume of 41 µL. The final concentration of Histone H3 is 0.1 µM. The final concentration of ATP is 23 µM (Km(app) = 23 µM+/-2.6) and the final concentration of AuroraB is 400 pM. Buffer conditions are as follows: 50mM HEPES pH 7.5, 5mM NaCl, 0.5mM MgCl, 0.5mM MnCl, 2mM DTT, 0.05% BSA.
The assay is quenched and stopped with 160 µL of detection reagent. Detection reagents are as follows: Buffer made of 50mM Tris, pH 7.5, 100mM NaCl, 3mM EDTA, 0.05% BSA, 0.1% Tween20. Added to this buffer prior to reading is Steptavidin allophycocyanin (SA-APC) at a final conc in the assay of 0.001 mg/mL, and europilated anti-phosphoHistoneH3 Ab (Eu-anti-HisH3) at a final conc of 0.064 nM.
The assay plate is read in either a Discovery or a RubyStar. The eu-anti-HisH3 is excited at 320 nm and emits at 615 nm to excite the SA-APC which in turn emits at 655 nm. The ratio of SA-APC at 655 nm (excited due to close proximity to the Eu-anti-HisH3 because of phosphorylation of the peptide) to free Eu-anti-HisH3 at 615 nm will give substrate phosphorylation.

Where [1] appears, read: average, given as class symbols, read-out: AurA/TP X2_ IC50_IP (Avg).
[2] abbreviates: average, given as class symbols, read-out: AurB_ _IC50_IP (Avg).

T2 sequence (Q96GD4 whole entry): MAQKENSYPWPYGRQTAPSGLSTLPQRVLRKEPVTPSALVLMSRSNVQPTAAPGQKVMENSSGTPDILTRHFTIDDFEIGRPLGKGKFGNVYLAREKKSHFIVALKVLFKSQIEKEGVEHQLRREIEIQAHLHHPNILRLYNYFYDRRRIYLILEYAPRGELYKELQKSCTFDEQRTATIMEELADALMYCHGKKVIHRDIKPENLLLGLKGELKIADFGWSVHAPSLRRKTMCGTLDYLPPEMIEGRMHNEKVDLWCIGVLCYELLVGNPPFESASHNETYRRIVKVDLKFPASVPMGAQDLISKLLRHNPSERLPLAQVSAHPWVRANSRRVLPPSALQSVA

As for `c1ccc(-c2nnc(Nc3ncc(Oc4ncccc4-c4ccncc4)cn3)c3ccccc23)cc1` [compound 311, N-(5-(3,4'-bipyridin-2-yloxy)-2-pyrimidinyl)-4-phenyl-1-phthalazinamine], the IC50 on AuroraA-TPX2 (setting [1]) and at AuroraB (setting [2]) was 500 to 2500 nM in each case.
Regarding `CCc1cc(-c2ccccc2)nnc1Nc1ccc(Oc2ncccc2-c2ccnc(NCCCN3CCNCC3)n2)nc1` [compound 451, 4-ethyl-6-phenyl-N-(6-((3-(2-((3-(1-piperazinyl)propyl)amino)-4-pyrimidinyl)-2-pyridinyl)oxy)-3-pyridinyl)-3-pyridazinamine], the IC50 at AuroraA-TPX2 (setting [1]) was 100 to 500 nM; on AuroraB (setting [2]), at most 100 nM.
As for `Cc1cc(-c2cccc(CO)c2)nnc1Nc1ccc(Oc2ncccc2-c2ccnc(N)n2)cc1` [compound 370, (3-(6-((4-((3-(2-amino-4-pyrimidinyl)-2-pyridinyl)oxy)phenyl)amino)-5-methyl-3-pyridazinyl)phenyl)methanol], the IC50 at AuroraA-TPX2 (setting [1]) and on AuroraB (setting [2]) was at most 100 nM throughout.
Turning to `CCc1cc(-c2ccccc2)nnc1Nc1ccc(Oc2ncccc2-c2ccnc(NCCCN3CCN(C)CC3)n2)nc1` [compound 449, 4-ethyl-N-(6-((3-(2-((3-(4-methyl-1-piperazinyl)propyl)amino)-4-pyrimidinyl)-2-pyridinyl)oxy)-3-pyridinyl)-6-phenyl-3-pyridazinamine], the IC50 at AuroraA-TPX2 (setting [1]) and on AuroraB (setting [2]) was at most 100 nM throughout.
Turning to `O=P(O)(O)OCCCNc1nccc(-c2cccnc2Oc2ccc(Nc3nnc(-c4ccccc4)c4ccccc34)cc2)n1` [Example Method F, 3-(4-(2-(4-(4-phenylphthalazin-1-ylamino)phenoxy)pyridin-3-yl)pyrimidin-2-ylamino)propyl dihydrogen phosphate dihydrochloride], the IC50 on AuroraA-TPX2 (read-out: average activity in the Aurora kinase A HTRF assay) and on AuroraB (read-out: average activity in the Aurora kinase B HTRF assay) was at most 100 nM throughout.
For `Nc1cc(-c2cccnc2Oc2ccc(Nc3nnc(-c4ccccc4O)c4ccccc34)cc2)ccn1` [compound 371, 2-(4-((4-((2'-amino-3,4'-bipyridin-2-yl)oxy)phenyl)amino)-1-phthalazinyl)phenol], the IC50 at AuroraA-TPX2 (setting [1]) is 100 to 500 nM; at AuroraB (setting [2]), at most 100 nM.
With `Cc1ccnc(-c2nnc(Nc3ccc(Oc4ncccc4-c4ccnc(N)n4)nc3)c3ccccc23)c1` [compound 405, N-(6-((3-(2-amino-4-pyrimidinyl)-2-pyridinyl)oxy)-3-pyridinyl)-4-(4-methyl-2-pyridinyl)-1-phthalazinamine], the IC50 was 100 to 500 nM on AuroraA-TPX2 (setting [1]) and at most 100 nM on AuroraB (setting [2]).
With `Nc1nccc(-c2cccnc2Oc2ccc(Nc3nnc(N4CCN5CCC[C@H]5C4)c4ccccc34)cn2)n1` [compound 402, N-(6-((3-(2-amino-4-pyrimidinyl)-2-pyridinyl)oxy)-3-pyridinyl)-4-((8aS)-hexahydropyrrolo[1,2-a]pyrazin-2(1H)-yl)-1-phthalazinamine], the IC50 at AuroraA-TPX2 (setting [1]) and on AuroraB (setting [2]) was at most 100 nM in each case.
Take `COc1ccc(F)cc1-c1nnc(Nc2ccc(Oc3ncccc3-c3ccnc(N)n3)nc2)c2ccccc12` [compound 381, N-(6-((3-(2-amino-4-pyrimidinyl)-2-pyridinyl)oxy)-3-pyridinyl)-4-(5-fluoro-2-(methyloxy)phenyl)-1-phthalazinamine]: the IC50 at AuroraA-TPX2 (setting [1]) was 100 to 500 nM; at AuroraB (setting [2]), at most 100 nM.
As to `Nc1nccc(-c2cccnc2Oc2ccc(Nc3nnc(-c4cccc(OP(=O)(O)O)c4)c4ccccc34)cn2)n1` [compound 392, 3-(4-((6-((3-(2-amino-4-pyrimidinyl)-2-pyridinyl)oxy)-3-pyridinyl)amino)-1-phthalazinyl)phenyl dihydrogen phosphate], the IC50 at AuroraA-TPX2 (setting [1]) and on AuroraB (setting [2]) was 500 to 2500 nM each time.
Consider `c1ccc(-c2nnc(Nc3ccc(Oc4ncccc4-n4ccnc4)cc3)c3ccccc23)cc1` [compound 268, N-(4-((3-(1H-imidazol-1-yl)-2-pyridinyl)oxy)phenyl)-4-phenyl-1-phthalazinamine], for which the IC50 at AuroraA-TPX2 (setting [1]) and on AuroraB (setting [2]) was 500 to 2500 nM throughout.
